The results in this text go back to patent publication US7897619B2, “Heterocyclic modulators of PKB” (Amgen Inc., priority 2007, dated 2011).

The target of this assay is PKBα (Homo sapiens, UniProt P31749). Briefly: PKB kinase assay (P33-labeled ATP, synthetic peptide substrate, filter plate). It is filed as biochemical. As to conditions: PKBα enzyme (full length or kinase domain with pleckstrin domain deleted). From the text:
The kinase assay for evaluating PKB activity comprises active PKB enzymes, a PKB specific substrate, and P^33-labeled ATP. Two forms of PKBα enzymes were used, the full length PKBα and a kinase domain of PKBα with pleckstrin domain (amino acids 1-117) deleted. Both PKB enzymes were obtained from Upstate cell signaling solutions (Cat.# 14-276 and 14-341). The PKB substrate used is a synthetic peptide (ARKRERTYSFGHHA (SEQ ID NO: 1)) as described in Obata et al., J. Biol. Chem. 275 (46), 36108-36115 (2000). The phosphorylated substrate was captured by a phosphocellulose membrane filter plate (MILLIPORE) and measured by a Wallac Microbeta liquid scintillation counter (Perkin Elmer). Table 1 provides the IC50 values obtained for each of the examples with respect to PKBα.

Each structure is given as a SMILES string. pIC50: −log10 of the molar value.

Sequence of PKBα (P31749 118-480 limits assumed): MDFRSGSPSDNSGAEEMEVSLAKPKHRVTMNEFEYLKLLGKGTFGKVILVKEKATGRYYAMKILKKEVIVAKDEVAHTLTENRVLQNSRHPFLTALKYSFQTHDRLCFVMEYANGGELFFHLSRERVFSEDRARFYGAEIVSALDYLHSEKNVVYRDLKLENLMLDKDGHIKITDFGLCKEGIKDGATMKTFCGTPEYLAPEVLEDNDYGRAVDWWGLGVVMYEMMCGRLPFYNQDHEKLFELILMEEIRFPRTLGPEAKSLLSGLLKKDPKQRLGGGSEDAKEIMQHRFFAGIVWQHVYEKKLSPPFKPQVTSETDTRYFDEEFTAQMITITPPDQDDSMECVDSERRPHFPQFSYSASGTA

Take `N[C@H](CCn1cc(-c2ccc3[nH]c(=O)oc3c2)cn1)Cc1ccc(Cl)cc1` [Example 50, 6-(1-((S)-3-Amino-4-(4-chlorophenyl)butyl)-1H-pyrazol-4-yl)benzo[d]oxazol-2(3H)-one]: the pIC50 (in general, the negative decadic logarithm of the IC50, by convention in mol/L) was over 7.30.

In turn, `N[C@H](CCc1cc(-c2ccc3cnccc3c2)no1)Cc1ccccc1Cl` [Example 27, (2R)-1-(2-chlorophenyl)-4-(3-(isoquinolin-6-yl)isoxazol-5-yl)butan-2-amine] had a pIC50 of 5.00 to 6.00.

Molecule `N[C@H](CCn1cc(-c2ccc3c(c2)CC(=O)N3)cn1)Cc1ccc(Cl)cc1` [Example 51, 5-(1-((S)-3-Amino-4-(4-chlorophenyl)butyl)-1H-pyrazol-4-yl)indolin-2-one] showed a pIC50 of over 7.30.

On to `Cn1c(=O)[nH]c2ccc(-c3cnn(CC[C@@H](N)Cc4ccc(Cl)cc4)c3)cc21` [Example 54, 6-(1-((S)-3-Amino-4-(4-chlorophenyl)butyl)-1H-pyrazol-4-yl)-1-methyl-1H-benzo[d]imidazol-2(3H)-one], for which the negative logarithm of the IC50 (pIC50) was 6.00 to 7.30.

For `N[C@H](CNc1nc(-c2ccc3cnccc3c2)ns1)Cc1ccc(C(F)(F)F)cc1` [Example 43, N-((S)-2-Amino-3-(4-(trifluoromethyl)phenyl)propyl)-3-(isoquinolin-6-yl)-1,2,4-thiadiazol-5-amine], the pIC50 is 6.00 to 7.30.

For the molecule `N[C@H](CCc1cc(-c2ccc3cnccc3c2)no1)Cc1ccccc1` [Example 23, (2R)-4-(3-(isoquinolin-6-yl)isoxazol-5-yl)-1-phenylbutan-2-amine], the pIC50 was 5.00 to 6.00.

On to `N[C@H](CCn1cc(-c2ccc3cnccc3c2)cn1)Cc1ccc(Cl)c(Cl)c1` [Example 60, (2S)-1-(3,4-Dichlorophenyl)-4-(4-(isoquinolin-6-yl)-1H-pyrazol-1-yl)butan-2-amine], for which the pIC50 is 6.00 to 7.30.

Take `CC(C)Cc1c(-c2ccc3cnccc3c2)noc1NC[C@@H](N)Cc1c[nH]c2ccccc12` [Example 34, N-((S)-2-Amino-3-(1H-indol-3-yl)propyl)-4-isobutyl-3-(isoquinolin-6-yl)isoxazol-5-amine]: the pIC50 was 5.00 to 6.00.

Take `N[C@H](CCc1cc(-c2ccc3cnccc3c2)no1)Cc1ccc(C(F)(F)F)cc1` [Example 24, (2R)-4-(3-(Isoquinolin-6-yl)isoxazol-5-yl)-1-(4-(trifluoromethyl)phenyl)butan-2-amine]: the pIC50 is over 7.30.

`N[C@@H](Cc1ccc(C(F)(F)F)cc1)Cc1nc(-c2ccc3cnccc3c2)no1` [Example 4, (2S)-1-(3-(Isoquinolin-6-yl)-1,2,4-oxadiazol-5-yl)-3-(4-(trifluoromethyl)phenyl)propan-2-amine] showed a negative-log IC50 (pIC50) of 5.00 to 6.00.

In the case of `Cc1n[nH]c2ccc(-c3cnc(NCc4ccccc4)o3)cc12` [Example 10, N-Benzyl-5-(3-methyl-1H-indazol-5-yl)oxazol-2-amine], the pIC50 is 5.00 to 6.00.

In the case of `N[C@H](CCn1cc(-c2ccc3cnccc3c2)cn1)Cc1ccccc1` [Example 64, (2S)-4-(4-(Isoquinolin-6-yl)-1H-pyrazol-1-yl)-1-phenylbutan-2-amine], the pIC50 is 6.00 to 7.30.

In turn, `N[C@H](CCc1nc(-c2ccc3cnccc3c2)no1)Cc1ccc(C(F)(F)F)cc1` [Example 3, (2R)-4-(3-(Isoquinolin-6-yl)-1,2,4-oxadiazol-5-yl)-1-(4-(trifluoromethyl)phenyl)butan-2-amine] showed a pIC50 of 5.00 to 6.00.

As for `Cc1n[nH]c2ccc(-c3cnn(CC[C@@H](N)Cc4ccc(Cl)cc4)c3)cc12` [Example 53, (2S)-1-(4-Chlorophenyl)-4-(4-(3-methyl-1H-indazol-5-yl)-1H-pyrazol-1-yl)butan-2-amine], the pIC50 was over 7.30.

In the case of `COc1ccc(CNc2ncc(-c3ccccc3)o2)cc1` [Example 7, N-(4-Methoxybenzyl)-5-phenyloxazol-2-amine], the pIC50 was 5.00 to 6.00.

For `N[C@H](CCn1cc(-c2ccc3[nH]ncc3c2)cn1)Cc1ccc(Cl)cc1` [Example 52, (2S)-4-(4-(1H-Indazol-5-yl)-1H-pyrazol-1-yl)-1-(4-chlorophenyl)butan-2-amine], the pIC50 was over 7.30.

For the molecule `N[C@@H](Cc1ccc(C(F)(F)F)cc1)c1nc(-c2ccc3c(c2)CC(=O)N3)no1` [Example 49, 5-(5-((S)-1-Amino-2-(4-(trifluoromethyl)phenyl)ethyl)-1,2,4-oxadiazol-3-yl)indolin-2-one], the pIC50 is 5.00 to 6.00.

For the molecule `N[C@H](CCc1nc(-c2ccc3c(c2)CC(=O)N3)no1)Cc1ccc(C(F)(F)F)cc1` [Example 48, 5-(5-((R)-3-Amino-4-(4-(trifluoromethyl)phenyl)butyl)-1,2,4-oxadiazol-3-yl)indolin-2-one], the pIC50 was 6.00 to 7.30.

Turning to `N[C@H](CCc1cc(-c2ccc3cnccc3c2)no1)Cc1ccc(Cl)cc1` [Example 25, (2R)-1-(4-Chlorophenyl)-4-(3-(isoquinolin-6-yl)isoxazol-5-yl)butan-2-amine], the pIC50 is 6.00 to 7.30.

For `N[C@H](CNc1cc(-c2ccc3cnccc3c2)no1)Cc1c[nH]c2ccccc12` [Example 32, N-((S)-2-amino-3-(1H-indol-3-yl)propyl)-3-(isoquinolin-6-yl)isoxazol-5-amine], the negative-log IC50 (pIC50) was 6.00 to 7.30.

Molecule `COc1ccc(CNc2ncc(-c3ccncc3)o2)cc1` [Example 8, N-(4-Methoxybenzyl)-5-(pyridin-4-yl)oxazol-2-amine] had a negative logarithm of the IC50 (pIC50) of 5.00 to 6.00.

Molecule `N[C@@H](Cc1ccc(C(F)(F)F)cc1)c1nc(-c2ccc3cnccc3c2)no1` [Example 5, (1S)-1-(3-(Isoquinolin-6-yl)-1,2,4-oxadiazol-5-yl)-2-(4-(trifluoromethyl)phenyl)ethanamine] gave a pIC50 of 5.00 to 6.00.

As to `N[C@H](CNc1cc(-c2ccc3cnccc3c2)no1)Cc1ccc(Br)cc1` [Example 12, N-((S)-2-Amino-3-(4-bromophenyl)propyl)-3-(isoquinolin-6-yl)isoxazol-5-amine], the pIC50 is over 7.30.

`N[C@H](CCn1cc(-c2ccc3cnccc3c2)cn1)Cc1ccc(C(F)(F)F)cc1` [Example 57, (2S)-4-(4-(Isoquinolin-6-yl)-1H-pyrazol-1-yl)-1-(4-(trifluoromethyl)phenyl)butan-2-amine] had a pIC50 of over 7.30.

`Cc1n[nH]c2ccc(-c3nnc(NC[C@@H](N)Cc4cccc(C(F)(F)F)c4)o3)cc12` [Example 2, N-((S)-2-amino-3-(3-(trifluoromethyl)phenyl)propyl)-5-(3-methyl-1H-indazol-5-yl)-1,3,4-oxadiazol-2-amine] gave a pIC50 of 5.00 to 6.00.

`N[C@H](CNc1onc(-c2ccc3cnccc3c2)c1Cc1ccccc1)Cc1c[nH]c2ccccc12` [Example 33, N-((S)-2-Amino-3-(1H-indol-3-yl)propyl)-4-benzyl-3-(isoquinolin-6-yl)isoxazol-5-amine] showed a pIC50 of 6.00 to 7.30.

The molecule `N[C@H](CCn1cc(-c2ccc3[nH]ncc3c2)nn1)Cc1ccccc1` [Example 39, (2S)-4-(4-(1H-Indazol-5-yl)-1H-1,2,3-triazol-1-yl)-1-phenylbutan-2-amine] gave a pIC50 of 6.00 to 7.30.

In turn, `N[C@H](CNc1cc(-c2ccc3cnccc3c2)on1)Cc1cccc(Cl)c1` [Example 21, N-((S)-2-Amino-3-(3-chlorophenyl)propyl)-5-(isoquinolin-6-yl)isoxazol-3-amine] gave a pIC50 of 6.00 to 7.30.

The molecule `N[C@H](CCn1cc(-c2ccc3cnc(F)cc3c2)cn1)Cc1ccc(Cl)cc1` [Example 55, (2S)-1-(4-Chlorophenyl)-4-(4-(3-fluoroisoquinolin-6-yl)-1H-pyrazol-1-yl)butan-2-amine] gave a pIC50 of over 7.30.

Regarding `NCCNc1onc(-c2ccc3cnccc3c2)c1Cc1ccccc1` [Example 36, N-(2-Aminoethyl)-4-benzyl-3-(isoquinolin-6-yl)isoxazol-5-amine], the pIC50 is 5.00 to 6.00.

As to `N[C@H](CNc1nc(-c2ccc3c(c2)CC(=O)N3)ns1)Cc1ccc(C(F)(F)F)cc1` [Example 44, 5-(5-((S)-2-Amino-3-(4-(trifluoromethyl)phenyl)propylamino)-1,2,4-thiadiazol-3-yl)indolin-2-one], the negative-log IC50 (pIC50) is 5.00 to 6.00.

Regarding `N[C@@H](CCc1cc(-c2ccc3cnccc3c2)no1)Cc1ccc(C(F)(F)F)cc1` [Example 28, (2S)-4-(3-(Isoquinolin-6-yl)isoxazol-5-yl)-1-(4-(trifluoromethyl)phenyl)butan-2-amine], the pIC50 is 6.00 to 7.30.

`Cc1n[nH]c2ccc(-c3cnc(NC[C@@H](N)Cc4ccc(C(F)(F)F)cc4)o3)cc12` [Example 9, N-((S)-2-Amino-3-(4-(trifluoromethyl)phenyl)propyl)-5-(3-methyl-1H-indazol-5-yl)oxazol-2-amine] gave a pIC50 of 6.00 to 7.30.

As for `N[C@H](CNc1cc(-c2ccc3cnccc3c2)no1)Cc1ccc(C(F)(F)F)cc1` [Example 14, N-((S)-2-Amino-3-(4-(trifluoromethyl)phenyl)propyl)-3-(isoquinolin-6-yl)isoxazol-5-amine], the pIC50 was over 7.30.

The molecule `N[C@H](CNc1cc(-c2ccc3cnccc3c2)no1)Cc1ccccc1` [Example 15, N-((S)-2-Amino-3-phenylpropyl)-3-(isoquinolin-6-yl)isoxazol-5-amine] gave a pIC50 of 6.00 to 7.30.

As for `N[C@H](CNc1nc(-c2ccc3[nH]ncc3c2)ns1)Cc1ccc(C(F)(F)F)cc1` [Example 45, N-((S)-2-Amino-3-(4-(trifluoromethyl)phenyl)propyl)-3-(1H-indazol-5-yl)-1,2,4-thiadiazol-5-amine], the pIC50 is 5.00 to 6.00.

Molecule `N[C@H](CNc1cc(-c2ccc3cnccc3c2)no1)Cc1cccc(Cl)c1` [Example 16, N-((S)-2-Amino-3-(3-chlorophenyl)propyl)-3-(isoquinolin-6-yl)isoxazol-5-amine] had a pIC50 of over 7.30.
